We go through 30 compounds from patent US8674118B2, “Compounds and methods for the treatment or prevention of flavivirus infections” (priority 2005, dated 2014).

This assay deals with HCV RNA replication (replicon cell lines Huh-7, 5.2 and ET). Kind of assay: Cell-Based Luciferase Reporter HCV RNA Replication Assay. To be noted: Hepatitis C virus, Huh-7, 96 h. A general note: In a reporter assay the amount or activity of a reporter protein is the signal.
[1] abbreviates: Huh-7, 5.2 or ET replicon cells, luciferase counts after 4 days incubation, read-out: IC50.

Where two headings read alike, the source gives them in different places.

With `C[C@H]1CC[C@H](C(=O)N(c2cc(C3CCCCC3)sc2C(=O)O)[C@H]2CC[C@H](O)CC2)CC1` [Compound 2, 5-Cyclohexyl-3-[(trans-4-hydroxy-cyclohexyl)-(trans-4-methyl-cyclohexanecarbonyl)-amino]-thiophene-2-carboxylic acid], the IC50 under setting [1] is less than 5 µM.

With `C[C@H]1CC[C@H](C(=O)N(c2cc(C3=CCCC3)sc2C(=O)O)[C@H]2CC[C@H](O)CC2)CC1` [Compound 3, 5-Cyclopent-1-enyl-3-[(trans-4-hydroxy-cyclohexyl)-(trans-4-methyl-cyclohexanecarbonyl)-amino]-thiophene-2-carboxylic acid], the IC50 under setting [1] was less than 5 µM.

`C[C@H]1CC[C@H](C(=O)N(c2cc(C3=CCCCCC3)sc2C(=O)O)[C@H]2CC[C@H](O)CC2)CC1` [Compound 5, 5-Cyclohept-1-enyl-3-[(trans-4-hydroxy-cyclohexyl)-(trans-4-methyl-cyclohexanecarbonyl)-amino]-thiophene-2-carboxylic acid]: the IC50 under setting [1] was less than 5 µM.

As to `C[C@H]1CC[C@H](C(=O)N(c2cc(C3CCCCCC3)sc2C(=O)O)[C@H]2CC[C@H](O)CC2)CC1` [Compound 6, 5-Cycloheptyl-3-[(trans-4-hydroxy-cyclohexyl)-(trans-4-methyl-cyclohexanecarbonyl)-amino]-thiophene-2-carboxylic acid], under setting [1], the IC50 is less than 5 µM.

For the compound `CC(C)N(c1cc(C2=CCCCC2)sc1C(=O)O)C(=O)[C@H]1CC[C@H](C)CC1` [Compound 7, 5-Cyclohex-1-enyl-3-[isopropyl-(trans-4-methyl-cyclohexanecarbonyl)-amino]-thiophene-2-carboxylic acid], the IC50 under setting [1] is less than 5 µM.

Take `C[C@H]1CC[C@H](C(=O)N(c2cc(C3=CCCCC3)sc2C(=O)O)C2CCC(=O)CC2)CC1` [Compound 8, 5-Cyclohex-1-enyl-3-[(trans-4-methyl-cyclohexanecarbonyl)-(4-oxo-cyclohexyl)-amino]-thiophene-2-carboxylic acid]: the IC50 under setting [1] was less than 5 µM.

Take `C[C@H]1CC[C@H](C(=O)N(c2cc(C3=CCCCC3)sc2C(=O)O)[C@H]2CC[C@@H](O)CC2)CC1` [Compound 9, 5-Cyclohex-1-enyl-3-[(cis-4-hydroxy-cyclohexyl)-(trans-4-methyl-cyclohexanecarbonyl)-amino]-thiophene-2-carboxylic acid]: under setting [1], the IC50 is less than 5 µM.

In the case of `C[C@H]1CC[C@H](C(=O)N(c2ccccc2)c2cc(C3=CCCCC3)sc2C(=O)O)CC1` [Compound 10, 5-Cyclohex-1-enyl-3-[(trans-4-methyl-cyclohexanecarbonyl)-phenyl-amino]-thiophene-2-carboxylic acid], the IC50 under setting [1] is less than 5 µM.

For `C[C@H]1CC[C@H](C(=O)N(c2cc(C3=CCCCC3)sc2C(=O)O)C2CCCCC2)CC1` [Compound 11, 5-Cyclohex-1-enyl-3-[cyclohexyl-(trans-4-methyl-cyclohexanecarbonyl)-amino]-thiophene-2-carboxylic acid], the IC50 under setting [1] is less than 5 µM.

On to `CO[C@H]1CC[C@H](N(c2cc(C3=CCCCC3)sc2C(=O)O)C(=O)[C@H]2CC[C@H](C)CC2)CC1` [Compound 12, 5-Cyclohex-1-enyl-3-[(trans-4-methoxy-cyclohexyl)-(trans-4-methyl-cyclohexanecarbonyl)-amino]-thiophene-2-carboxylic acid], for which the IC50 under setting [1] was less than 5 µM.

Consider `CC1CCC(C(=O)N(c2cc(C3=CCC4(CC3)OCCO4)sc2C(=O)O)C2CCC(O)CC2)CC1` (stereo not drawn) [Compound 14, 5-(1,4,Dioxa-spiro[4.5.]dec-7-en-8-yl)-3-[(trans-4-hydroxy-cyclohexyl)-(trans-4-methyl-cyclohexanecarbonyl)-amino]-thiophene-2-carboxylic acid], for which the IC50 under setting [1] is less than 5 µM.

For the compound `CC(C)N(C(=O)c1ccc(Cl)cc1Cl)c1cc(C2=CCCC2)sc1C(=O)O` [Compound 15, 5-Cyclopent-1-enyl-3-[(2,4-dichloro-benzoyl)-isopropyl-amino]-thiophene-2-carboxylic acid], under setting [1], the IC50 was greater than 25 µM.

In the case of `C[C@H]1CC[C@H](C(=O)N(c2cc(C3=CCCC3)sc2C(=O)O)[C@H]2CC[C@H](O)CC2)CC1` [Compound 16, 5-Cyclopent-1-enyl-3-[(trans-4-hydroxy-cyclohexyl)-(trans-4-methyl-cyclohexanecarbonyl)-amino]-thiophene-2-carboxylic acid], the IC50 under setting [1] was less than 5 µM.

As to `CO[C@H]1CC[C@H](N(c2cc(C3=CCC(C)(C)CC3)sc2C(=O)O)C(=O)[C@H]2CC[C@H](C)CC2)CC1` [Compound 20, 5-(4,4-Dimethyl-cyclohex-1-enyl)-3-[(trans-4-methoxy-cyclohexyl)-(trans-4-methyl-cyclohexanecarbonyl)-amino]-thiophene-2-carboxylic acid], under setting [1], the IC50 is less than 5 µM.

With `CO[C@H]1CC[C@H](N(c2cc(C3CCC(C)(C)CC3)sc2C(=O)O)C(=O)[C@H]2CC[C@H](C)CC2)CC1` [Compound 21, 5-(4,4-Dimethyl-cyclohexyl)-3-[(trans-4-methoxy-cyclohexyl)-(trans-4-methyl-cyclohexanecarbonyl)-amino]-thiophene-2-carboxylic acid], the IC50 under setting [1] was less than 5 µM.

For `CCO[C@H]1CC[C@H](N(c2cc(C3=CCCCC3)sc2C(=O)O)C(=O)[C@H]2CC[C@H](C)CC2)CC1` [Compound 22, 5-Cyclohex-1-enyl-3-[(trans-4-ethoxy-cyclohexyl)-(trans-4-methyl-cyclohexanecarbonyl)-amino]-thiophene-2-carboxylic acid], the IC50 under setting [1] is less than 5 µM.

For `COC1CCC(N(C(=O)C2CCC(C)CC2)c2cc(C3=CCCCC3)sc2C(=O)O)CC1` (stereo not drawn) [Compound 23, 5-Cyclohex-1-enyl-3-[(cis-4-methoxy-cyclohexyl)-(4-trans-methyl-cyclohexanecarbonyl)-amino]-thiophene-2-carboxylic acid], the IC50 under setting [1] was less than 5 µM.

In the case of `COCO[C@H]1CC[C@H](N(c2cc(C3=CCCCC3)sc2C(=O)O)C(=O)[C@H]2CC[C@H](C)CC2)CC1` [Compound 24, 5-Cyclohex-1-enyl-3-[(trans-4-methoxymethoxy-cyclohexyl)-(trans-4-methyl-cyclohexanecarbonyl)-amino]-thiophene-2-carboxylic acid], the IC50 under setting [1] is less than 5 µM.

For `CC1CCC(C(=O)N(c2cc(C3=CCC(=O)CC3)sc2C(=O)O)C2CCC(O)CC2)CC1` (stereo not drawn) [Compound 25, 3-[(4-trans-hydroxy-cyclohexyl)-(4-trans-methyl-cyclohexanecarbonyl)-amino]-5-(4-oxo-cyclohex-1-enyl)-thiophene-2-carboxylic acid], under setting [1], the IC50 is 5 to 25 µM.

For `CC1CCC(C(=O)N(c2cc(C3=CC/C(=N/OCc4ccccc4)CC3)sc2C(=O)O)C2CCC(O)CC2)CC1` (stereo not drawn) [Compound 26, 5-{4-benzyloxyimino-cyclohex-1-enyl}-3-[(4-trans-hydroxy-cyclohexyl)-(4-trans-methyl-cyclohexanecarbonyl)-amino]-thiophene-2-carboxylic acid], the IC50 under setting [1] is less than 5 µM.

On to `CCO/N=C1/CC=C(c2cc(N(C(=O)C3CCC(C)CC3)C3CCC(O)CC3)c(C(=O)O)s2)CC1` (stereo not drawn) [Compound 27, 5-{4-ethoxyimino-cyclohex-1-enyl}-3-[(4-trans-hydroxy-cyclohexyl)-(4-trans-methyl-cyclohexanecarbonyl)-amino]-thiophene-2-carboxylic acid], for which the IC50 under setting [1] is less than 5 µM.

The compound `CC1CCC(C(=O)N(c2cc(C3=CC4CCC3C4)sc2C(=O)O)C2CCC(O)CC2)CC1` (stereo not drawn) [Compound 28, 5-bicyclo[2.2.1]hept-2-en-2-yl-3-[(4-trans-hydroxy-cyclohexyl)-(4-trans-methyl-cyclohexanecarbonyl)-amino]-thiophene-2-carboxylic acid] gave an IC50 greater than 25 µM.

In the case of `C[C@H]1CC[C@H](C(=O)N(c2cc(C3=CCCCC3)sc2C(=O)O)C2CCOCC2)CC1` [Compound 29, 5-cyclohex-1-enyl-3-[(trans-4-methyl-cyclohexanecarbonyl)-(tetrahydro-pyran-4-yl)-amino]-thiophene-2-carboxylic acid], under setting [1], the IC50 is less than 5 µM.

With `C[C@H]1CC[C@H](C(=O)N(c2cc(C3=CCCCC3)sc2C(=O)O)C2COCOC2)CC1` [Compound 30, 5-cyclohex-1-enyl-3-[[1,3]dioxan-5-yl-(trans-4-methylcyclohexanecarbonyl)-amino]-thiophene-2-carboxylic acid], the IC50 under setting [1] is less than 5 µM.

Turning to `CC(C)N(C(=O)c1ccc(Cl)cc1Cl)c1cc(C2=CCCCC2)sc1C(=O)O` [Compound 31, 5-cyclohex-1-enyl-3-[(2,4-dichloro-benzoyl)-isopropyl-amino]-thiophene-2-carboxylic acid], under setting [1], the IC50 was 5 to 25 µM.

Consider `CC1CCC(C(=O)N(c2cc(C3=CCC(O)CC3)sc2C(=O)O)C2CCC(O)CC2)CC1` (stereo not drawn) [Compound 34, RS-5-(4-hydroxy-cyclohex-1-enyl)-3-[(4-trans-hydroxy-cyclohexyl)-(4-trans-methyl-cyclohexanecarbonyl)-amino]-thiophene-2-carboxylic acid], for which the 50% inhibitory concentration (IC50) under setting [1] is less than 5 µM.

For the compound `CC1CCC(C(=O)N(c2cc(C3=CCC(C)(C)CC3)sc2C(=O)O)C2CCC(O)CC2)CC1` (stereo not drawn) [Compound 35, 5-(4,4-dimethyl-cyclohex-1-enyl)-3-[(4-trans-4-hydroxy-cyclohexyl)-(trans-4-methyl-cyclohexanecarbonyl)-amino]-thiophene-2-carboxylic acid], under setting [1], the IC50 is less than 5 µM.

Regarding `CN(c1cc(C2=CCCCC2)sc1C(=O)O)C(=O)[C@H]1CC[C@H](C)CC1` [Compound 37, 5-cyclohex-1-enyl-3-[methyl-(trans-4-methyl-cyclohexanecarbonyl)-amino]-thiophene-2-carboxylic acid], the IC50 under setting [1] was 5 to 25 µM.

On to `CC1(C)CCC(N(c2cc(C3=CCCCC3)sc2C(=O)O)C(=O)[C@H]2CC[C@H](C)CC2)CC1` [Compound 38, 5-cyclohex-1-enyl-3-[(4,4-dimethyl-cyclohexyl)-(trans-4-methyl-cyclohexanecarbonyl)-amino]-thiophene-2-carboxylic acid], for which, under setting [1], the IC50 is less than 5 µM.

As to `C[C@H]1CC[C@H](C(=O)N(c2cc(C3=CCCCC3)sc2C(=O)O)[C@H]2CC[C@@H](n3cncn3)CC2)CC1` [Compound 41, 5-cyclohex-1-enyl-3-[(trans-4-methyl-cyclohexanecarbonyl)-(cis 4-[1,2,4]triazol-1-yl-cyclohexyl)-amino]-thiophene-2-carboxylic acid], under setting [1], the IC50 was less than 5 µM.

The IC50 is the concentration at which inhibition is half-maximal.
